Patent publication US20080058400A1, “Skin external preparation” (FUJIFILM CORPORATION, priority 2006, published 2008)

What was measured:
[1] = tested on: Human normal epidermal keratinocytes; test: Amino acid deficient medium culturing test; format: cell-based; details: for Relative ratio: number of cells, named amino acid reduced to 10% by weight of general MCDB 153 medium concentration, 5 days culture, non-deficient medium = 100; for growth of human epidermal keratinocytes in deficient medium: medium deficient in the named amino acid
Experimental: Human normal epidermal keratinocytes (Sanko Junyaku) were used as the cells. […] The cells were pre-cultured at 37° C., under an atmosphere of 5% (v/v) CO2 until they became a semi-confluent state.
The keratinocytes cultured under a growing state in a T 75 flask were used. After removing the medium by suction, 5 ml of 0.25% trypsin solution was added thereto and incubated at room temperature for 10 minutes. A 10 ml portion of the medium was added thereto, and the cells were peeled off and recovered by pipetting. The thus obtained cell suspension was centrifuged at 1,000 rpm for 5 minutes, and the supernatant was discarded. The thus obtained cell pellet was suspended in 10 ml of the medium and centrifuged at 1,000 rpm for 5 minutes, and the supernatant was discarded. The thus obtained cell pellet was again suspended in 10 ml of the medium and centrifuged at 1,000 rpm for 5 minutes, and the supernatant was discarded. The thus obtained cell pellet was suspended in 2 ml of the medium, and the number of cells was counted.
As growth factors, 50 mg/l of BPE (bovine pituitary gland extract), 5 mg/l of insulin, 0.1 mM ethanolamine, 0.1 mM phosphoethanolamine and 0.00001 mg EGF ([…]) were added thereto. The aforementioned cells were mixed with 1 ml of this medium at a density of 3×10^4 cells, inoculated onto a 24 well plate and cultured at 37° C. for 5 days under an atmosphere of 5% (v/v) CO2, and then the number of cells was counted.

[2] = tested on: abdominal skin of male hairless mice; details: for Permeability (%) of the permeated whole amino acids: male, hairless, mouse, 24 h, 1 % by weight
Experimental: The skin sample was attached to a Keshany-Chien type diffusion cell. A 1 ml portion of each test liquid (described later) was added to the donor phase, and its upper side was sealed with Para Film. A 0.01 mol/l phosphate buffered saline (Wako Pure Chemical Industries) was added to the receptor phase, stirred and incubated at 32° C., and amounts of amino acids were determined by an HPLC method 24 hours later to calculate permeation ratio.
Using an HPLC amino acid analysis system of Shimadzu Corp. (Prominence), the determination was carried out by a post column fluorescence detection method which uses OPA (ortho-phthalaldehyde) as a reaction reagent.

In the case of `C[C@H](N)C(=O)O` [Alanine], the Relative ratio [1] is reported as 14 and the Permeability of each amino acid [2] is reported as 8.4%.
In the case of `N=C(N)NCCC[C@H](N)C(=O)O` [Arginine], the “growth of human epidermal keratinocytes in deficient medium” value (shortened to “growth of human epidermal keratinocytes”) [1] is reported as “growth was suppressed”, the Relative ratio [1] is reported as 8 and the Permeability of each amino acid [2] is reported as 18.1%.
`NC(=O)C[C@H](N)C(=O)O` [Asparagine] was tested, and the Relative ratio [1] was 13 and the Permeability of each amino acid [2] was 14.2%.
In the case of `N[C@@H](CC(=O)O)C(=O)O` [Aspartic acid], the “growth of human epidermal keratinocytes” value [1] is reported as “growth was suppressed”, the Relative ratio [1] is reported as 6 and the Permeability of each amino acid [2] is reported as 19.1%.
With `N[C@@H](CS)C(=O)O` [Cysteine] the “growth of human epidermal keratinocytes” value [1] was “growth was suppressed”, the Relative ratio [1] was 9 and the Permeability of each amino acid [2] was 14.7%.
For `OC[C@H]1OC(O)[C@H](O)[C@@H](O)[C@@H]1O` (stereo partly shown) [Glucose], the “Permeability (%) of the permeated whole amino acids” value [2] was 9.6%.
Compound `N[C@@H](CCC(=O)O)C(=O)O` [Glutamic acid] has a Relative ratio [1] of 15.
`NC(=O)CC[C@H](N)C(=O)O` [Glutamine] gave a Relative ratio [1] of 16 and a Permeability of each amino acid [2] of 10.2%.
`NCC(=O)O` [Glycine] was tested, and the “growth of human epidermal keratinocytes” value [1] was “growth was suppressed”, the Relative ratio [1] was 9 and the Permeability of each amino acid [2] was 14.3%.
`N[C@@H](Cc1c[nH]cn1)C(=O)O` [Histidine] was tested, and the “growth of human epidermal keratinocytes” value [1] was “growth was suppressed”, the Relative ratio [1] was 7 and the Permeability of each amino acid [2] was 15.2%.
`CC[C@H](C)[C@H](N)C(=O)O` [Isoleucine] was tested, and the “growth of human epidermal keratinocytes” value [1] was “growth was suppressed”, the Relative ratio [1] was 7 and the Permeability of each amino acid [2] was 20.8%.
For `CC(C)C[C@H](N)C(=O)O` [Leucine], the “growth of human epidermal keratinocytes” value [1] was “growth was suppressed”, the Relative ratio [1] was 6 and the Permeability of each amino acid [2] was 21.3%.
In the case of `NCCCC[C@H](N)C(=O)O` [Lysine], the “growth of human epidermal keratinocytes” value [1] is reported as “growth was suppressed”, the Relative ratio [1] is reported as 9 and the Permeability of each amino acid [2] is reported as 19.6%.
In the case of `CSCC[C@H](N)C(=O)O` [Methionine], the Relative ratio [1] is reported as 12 and the Permeability of each amino acid [2] is reported as 7.4%.
For `N[C@@H](Cc1ccccc1)C(=O)O` [Phenylalanine], the “growth of human epidermal keratinocytes” value [1] was “growth was suppressed”, the Relative ratio [1] was 4 and the Permeability of each amino acid [2] was 15.1%.
Compound `O=C(O)[C@@H]1CCCN1` [Proline] has a Relative ratio [1] of 13 and a Permeability of each amino acid [2] of 7.9%.
`N[C@@H](CO)C(=O)O` [Serine] was tested, and the “growth of human epidermal keratinocytes” value [1] was “growth was suppressed”, the Relative ratio [1] was 6 and the Permeability of each amino acid [2] was 15.2%.
With `C[C@@H](O)[C@H](N)C(=O)O` [Threonine] the “growth of human epidermal keratinocytes” value [1] was “growth was suppressed”, the Relative ratio [1] was 8 and the Permeability of each amino acid [2] was 19.3%.
`OC[C@H]1O[C@H](O[C@H]2O[C@H](CO)[C@@H](O)[C@H](O)[C@H]2O)[C@H](O)[C@@H](O)[C@@H]1O` [Trehalose] was tested, and the “Permeability (%) of the permeated whole amino acids” value [2] was 7.2%.
For `N[C@@H](Cc1c[nH]c2ccccc12)C(=O)O` [Tryptophan], the Relative ratio [1] was 15 and the Permeability of each amino acid [2] was 3.6%.
`N[C@@H](Cc1ccc(O)cc1)C(=O)O` [Tyrosine] was tested, and the “growth of human epidermal keratinocytes” value [1] was “growth was suppressed”.
With `CC(C)[C@H](N)C(=O)O` [Valine] the “growth of human epidermal keratinocytes” value [1] was “growth was suppressed”, the Relative ratio [1] was 9 and the Permeability of each amino acid [2] was 14.9%.
